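The compound was tested at five concentrations on cells cultured in 96-well plates, with a 48-hour exposure period. Definition used: TGI = concentration required for complete inhibition of growth.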

Our source for the TGI values is PubChem BioAssay (NCI).

Test in all cases: NCI anticancer screen, dose series, 48 h
The subject of assay [1] is MDA-N.
The subject of assay [2] is UACC-257 melanoma.
The test system of assay [3] is CCRF-CEM leukemia.
For assay [4], the system named is SNB-19 CNS.
Assay [5] deals with UACC-62 melanoma.
Assay [6] concerns SW-620 colon.
The test system of assay [7] is MCF7 breast.
Assay [8] concerns HT29 colon.
In assay [9] the test system is U251 CNS.
In assay [10] the test system is SK-OV-3 ovarian.
The test system of assay [11] is KM12 colon.
The subject of assay [12] is EKVX NSCLC.
Assay [13] relates to SK-MEL-28 melanoma.
The subject of assay [14] is SK-MEL-5 melanoma.
In assay [15] the test system is SF-539 CNS.
Assay [16] deals with HCC-2998 colon.
Assay [17] deals with NCI-H522 lung.
The subject of assay [18] is T-47D breast.
Assay [19] deals with OVCAR-8 ovarian.
The subject of assay [20] is MDA-MB-231 breast.

`C=CC/C=C/Cc1csc(C(C)(C)C(O)C/C=C/C(=C)CCNC(=O)OC)n1` (stereo not given): the TGI is greater than 100 µM in assay [1]; greater than 100 µM in assay [2]; greater than 100 µM in assay [3]; greater than 100 µM in assay [4]; greater than 100 µM in assay [5]; greater than 46.4 µM in [6]. Moreover, the TGI in assay [7], in [8], in assay [9], in assay [10], in [11] and in [12] was greater than 100 µM in each case. Besides, the TGI in assay [13] is greater than 100 µM; in assay [14] it was greater than 60.5 µM; in assay [15] it was greater than 100 µM; in [16], greater than 100 µM; in [17] it was greater than 100 µM; in [18], greater than 100 µM. The same molecule displayed a TGI in [19] greater than 100 µM.
With `N#CCc1nc2ccccc2c(=O)[nH]1`, the TGI in assay [1], in [2], in assay [4], in [6], in assay [7] and in assay [20] was greater than 100 µM in each case. Besides, the TGI in assay [8], in assay [9], in assay [10], in [11], in assay [12] and in [13] was greater than 100 µM each time. Also, the TGI in [14], in assay [15], in assay [16], in [18] and in [19] was greater than 100 µM throughout.
`COC12OC3(C4OC41)C(C(=O)O[C@H]3CO[Si](C)(C)C(C)(C)C)C2C(=O)Oc1ccccc1` (stereo not given in full): the TGI in assay [1], in assay [2], in assay [3], in [4], in [5] and in assay [6] was greater than 100 µM throughout. The TGI in [7], in assay [20], in assay [8], in [9], in assay [10] and in [11] was greater than 100 µM in each case. Moreover, the TGI in assay [12], in [13], in [14], in assay [16], in assay [17] and in assay [18] was greater than 100 µM throughout. The TGI in assay [19] is greater than 100 µM.
For the molecule `CC12CCC(CC1=O)C2(C)CCC(N)=O` (stereo not given), the TGI in assay [1], in assay [2], in assay [3], in assay [4], in assay [5] and in [6] was greater than 100 µM throughout. For the same molecule, the TGI in assay [7], in assay [20], in assay [8], in assay [9], in assay [10] and in assay [11] was greater than 100 µM throughout. In addition, the TGI in assay [12], in assay [13], in [14], in [16], in [17] and in assay [18] was greater than 100 µM in each case. This molecule also had a TGI in assay [19] greater than 100 µM.
For the molecule `[N-]=[N+]=Nc1c(C=O)c(=O)n2c3c(cccc13)CCC2`, the TGI stood at 15.3 µM in assay [1]; 10 µM in assay [2]; 6.44 µM in assay [3]; 42.1 µM in [4]; 26.5 µM in assay [5]; 2.87 µM in assay [6]. Besides, the TGI in [7] is 10.6 µM; in assay [20], 32.1 µM; in assay [8], greater than 70.2 µM; in assay [9], 19.5 µM; in assay [10], 33.9 µM; in assay [11] it was 34.6 µM. Moreover, the TGI in [12] was found to be 50.5 µM; in [13] it was 27.2 µM; in assay [14], 27.5 µM; in assay [15] it was 36.1 µM; in assay [16], 33.6 µM; in assay [18], 15.5 µM. In assay [19], this molecule registered a TGI of 17.8 µM.
On to `CSc1ncc2c(C#N)c3sc4ccccc4n3c(=O)c2n1`, for which the TGI in [1], in assay [2], in assay [3], in assay [4], in [5] and in [6] was greater than 100 µM in each case. Further, the TGI in assay [7], in assay [20], in assay [8], in [9], in assay [10] and in [11] was greater than 100 µM throughout. The TGI in [12], in [13], in assay [14], in assay [15], in [16] and in assay [18] was greater than 100 µM each time. This molecule displayed a TGI in assay [19] greater than 100 µM.
As for `C[n+]1c2ccccc2c(C(=O)Nc2ccc(S(=O)(=O)Nc3ccnn3-c3ccccc3)cc2)c2ccccc21`, the TGI in [1], in assay [2], in assay [4], in assay [5], in assay [6] and in assay [7] was greater than 100 µM in each case. Also, the TGI in assay [20], in assay [8], in [9], in assay [10], in [11] and in assay [12] was greater than 100 µM throughout. Further, the TGI in [13], in assay [14], in assay [15], in assay [16], in assay [18] and in assay [19] was greater than 100 µM each time.
